Reference: publication PMC6394493 (Cancer Chemotherapy and Pharmacology, 2018)

Test: Safety assessment: adverse events
Type: in vivo, Japanese patients
Description: Safety assessments consisted of monitoring and recording of all AEs, including laboratory abnormalities and vital signs. DLTs were defined as an AE or a laboratory abnormality assessed as related to the study drug and occurring within the first 28 days of treatment (Cycle 1), as defined in Supplemental Table S1.

[1] = qd 1400 mg (n = 7), regardless of study drug relationship
[2] = qd All patients (N = 27), regardless of study drug relationship

Cn1c(=O)n(-c2ccc(C(C)(C)C#N)cc2)c2c3cc(-c4cnc5ccccc5c4)ccc3ncc21 [BEZ235]
Blood alkaline phosphatase increased, Grade ¾ [1]: 1 (14.3) n (%) | Cancer pain, All grades [1]: 0 n (%) | Cancer pain, Grade ¾ [1]: 0 n (%) | Decreased appetite, All grades [1]: 6 (85.7) n (%) | Decreased appetite, Grade ¾ [1]: 0 n (%) | Diarrhea, All grades [1]: 7 (100.0) n (%) | Diarrhea, Grade ¾ [1]: 1 (14.3) n (%) | Dysgeusia, All grades [1]: 2 (28.6) n (%) | Dysgeusia, Grade ¾ [1]: 0 n (%) | Fatigue, All grades [1]: 4 (57.1) n (%) | Fatigue, Grade ¾ [1]: 0 n (%) | Leukopenia, All grades [1]: 2 (28.6) n (%) | Leukopenia, Grade ¾ [1]: 1 (14.3) n (%) | Lymphopenia, All grades [1]: 4 (57.1) n (%) | Lymphopenia, Grade ¾ [1]: 1 (14.3) n (%) | Nausea, All grades [1]: 6 (85.7) n (%) | Nausea, Grade ¾ [1]: 0 n (%) | Neutropenia, All grades [1]: 4 (57.1) n (%) | Neutropenia, Grade ¾ [1]: 3 (42.9) n (%) | Pyrexia, All grades [1]: 0 n (%) | Pyrexia, Grade ¾ [1]: 0 n (%) | Rash, All grades [1]: 4 (57.1) n (%) | Rash, Grade ¾ [1]: 0 n (%) | Stomatitis, All grades [1]: 5 (71.4) n (%) | Stomatitis, Grade ¾ [1]: 0 n (%) | Thrombocytopenia, All grades [1]: 3 (42.9) n (%) | Vomiting, All grades [1]: 5 (71.4) n (%) | Vomiting, Grade ¾ [1]: 0 n (%) | AEs Total, All grades [2]: 27 (100.0) n (%) | AEs Total, Grade ¾ [2]: 18 (66.7) n (%) | Alanine aminotransferase increased, All grades [2]: 6 (22.2) n (%) | Alanine aminotransferase increased, Grade ¾ [2]: 1 (3.7) n (%) | Blood alkaline phosphatase increased, All grades [2]: 6 (22.2) n (%) | Blood alkaline phosphatase increased, Grade ¾ [2]: 2 (7.4) n (%) | Cancer pain, All grades [2]: 7 (25.9) n (%) | Cancer pain, Grade ¾ [2]: 1 (3.7) n (%) | Decreased appetite, All grades [2]: 24 (88.9) n (%) | Decreased appetite, Grade ¾ [2]: 1 (3.7) n (%) | Diarrhea, All grades [2]: 25 (92.6) n (%) | Diarrhea, Grade ¾ [2]: 1 (3.7) n (%) | Dysgeusia, All grades [2]: 8 (29.6) n (%) | Dysgeusia, Grade ¾ [2]: 0 n (%) | Fatigue, All grades [2]: 17 (63.0) n (%) | Fatigue, Grade ¾ [2]: 3 (11.1) n (%) | Leukopenia, All grades [2]: 6 (22.2) n (%) | Leukopenia, Grade ¾ [2]: 2 (7.4) n (%) | Lymphopenia, All grades [2]: 10 (37.0) n (%) | Lymphopenia, Grade ¾ [2]: 7 (25.9) n (%) | Nausea, All grades [2]: 22 (81.5) n (%) | Nausea, Grade ¾ [2]: 0 n (%) | Neutropenia, All grades [2]: 8 (29.6) n (%) | Neutropenia, Grade ¾ [2]: 4 (14.8) n (%) | Pyrexia, All grades [2]: 6 (22.2) n (%) | Pyrexia, Grade ¾ [2]: 0 n (%) | Rash, All grades [2]: 11 (40.7) n (%) | Rash, Grade ¾ [2]: 2 (7.4) n (%) | Stomatitis, All grades [2]: 18 (66.7) n (%) | Stomatitis, Grade ¾ [2]: 1 (3.7) n (%) | Thrombocytopenia, All grades [2]: 8 (29.6) n (%) | Thrombocytopenia, Grade ¾ [2]: 3 (11.1) n (%) | Vomiting, All grades [2]: 17 (63.0) n (%) | Vomiting, Grade ¾ [2]: 0 n (%) | patients with study drug-related serious adverse events (SAEs) (qd dosing group): two | patients with Grade 3 or 4 AEs (qd dosing, 18 patients): 66.7% | grade 3 or 4 lymphopenia suspected to be study drug-related (qd group, four patients): 14.8% | study drug discontinuation due to AEs (qd group, seven patients): 25.9% | grade 3 or 4 fatigue suspected to be study drug-related (qd group, three patients): 11.1% | grade 3 or 4 neutropenia suspected to be study drug-related (qd group, three patients): 11.1% | grade 3 or 4 rash suspected to be study drug-related (qd group, two patients): 7.4% | grade 3 or 4 thrombocytopenia suspected to be study drug-related (qd group, two patients): 7.4%
